In patent publication US20030125252A1, “Compositions and methods for affecting osteogenesis” (priority 2002, published 2003):

What was measured:
[1] = test system: MC3T3-E1 cells; experiment: Cell death, propidium iodide (PI) staining; format: cell-based, mouse; details: for number of PI-stained cells (cell death): MC3T3-E1, single ligand
Experimental: Cultures of MC3T3-E1 were initiated at sub-confluence (1-2×10^4 cells/well) in 24-well plates and allowed to reach confluence prior to the addition of ligands, β-GP and ascorbate. […] Cells were incubated in the presence of the dye for 5 minutes, and images were acquired using epifluorescence with a XF35 filter set (Omega Optical) at low magnification (50×). The number of fluorescent-positive cells per microscopic field (3 mm^2) was counted using Northern Eclipse imaging software.

[2] = test system: MC3T3-E1 cells; experiment: Cell viability, MTT assay; format: cell-based, mouse; details: for cell viability: MC3T3-E1 early stage cultures, data not shown
Experimental: Cell viability was measured in MC3T3-E1 cells using the 3-[4,5-dimethylthiazol-2-yl]-2,5-diphenyltetrazolium bromide (MTT) assay in 96-well plates as described in the Roche Molecular Biochemicals product information. Briefly, cells were cultured to confluence, at which time various concentrations and combinations of ligands were added to the cultures followed by incubation for 24 to 60 hr. MTT substrate to a final concentration of 0.5 mg/ml was added to each well and the incubation was extended for a further 4 hr. At this time, cells were solubilized overnight in 10% sodium dodecyl sulfate (SDS) in 0.01 M HCl and absorbance was measured at 595 nm using a 650 nm reference wavelength.

[3] = test system: MC3T3-E1 cells; experiment: Histological analysis of mineralization (Alizarin Red S) in MC3T3-E1 cultures; format: cell-based, mouse; details: for mineralization (Alizarin Red S staining), concentration dependence: MC3T3-E1 mineralizing cultures
Experimental: MC3T3-E1 cells were maintained in Minimum Essential Medium Eagle-modification supplemented with 10% fetal bovine serum (Gibco-BRL) and subcultured as previously described (20). For mineralization, cultures of MC3T3-E1 cells were supplemented with ascorbate (50 μg/ml) and β-glycerolphosphate (β-GP, 10 mM), and the medium was changed every 3 days. These compounds, in addition to ligands, were added to the media once the cultures had reached confluence. MC3T3-637OC stable transfectants were cultured in the same manner and supplemented with active G418 (700 μg/ml). COSP7 cells were cultured in Dulbecco's Modified Eagle's Medium containing 10% FBS and antibiotics. All-trans RA was obtained from Sigma. 4-[E-2-(5,6,7,8-Tetrahydro-5,5,8,8-tetramethyl-2-naphthalenyl)-1-propenyl] benzoic acid (TTNPB), 1,25 VD3 and 9-cis RA were purchased from BioMol.
MC3T3-E1 cells were seeded at 2×10^4 cells/well into 12-well plates, and medium was changed at three-day intervals for a period of 4 weeks. Matrix calcification within the cultures was measured by histological staining with Alizarin Red S (Sigma). Cells were fixed for 10 min in equal parts of 40% formaldehyde and methanol, rinsed briefly in 50% ethanol followed by a rinse in water. Samples were then stained with Alizarin Red S (2% w/v, pH 4.2) for 2 min, followed by a 30-second wash in acetone and allowed to air dry. A Zeiss SV11 dissection microscope connected to a Sony DXC-950 video camera was used to capture digital images. The extent of mineralization for each culture was determined by calculating the percentage of surface area occupied by Alizarin Red S-stained material using Northern Eclipse image analysis software (Empix Imaging Inc.). All images were captured from the center of the well at low magnification, a field which represents ˜65% of the total surface area of the well.

[4] = test system: normal human osteoblasts; experiment: Normal human osteoblast cultures, mineralization (alizarin red S, Von Kossa); format: cell-based; details: 1000 nM, versus control cultures
[5] = biological target: T1, RARγ (Homo sapiens, UniProt P13631); details: compared with RARα; cited from earlier work
T1 sequence (P13631 1-454): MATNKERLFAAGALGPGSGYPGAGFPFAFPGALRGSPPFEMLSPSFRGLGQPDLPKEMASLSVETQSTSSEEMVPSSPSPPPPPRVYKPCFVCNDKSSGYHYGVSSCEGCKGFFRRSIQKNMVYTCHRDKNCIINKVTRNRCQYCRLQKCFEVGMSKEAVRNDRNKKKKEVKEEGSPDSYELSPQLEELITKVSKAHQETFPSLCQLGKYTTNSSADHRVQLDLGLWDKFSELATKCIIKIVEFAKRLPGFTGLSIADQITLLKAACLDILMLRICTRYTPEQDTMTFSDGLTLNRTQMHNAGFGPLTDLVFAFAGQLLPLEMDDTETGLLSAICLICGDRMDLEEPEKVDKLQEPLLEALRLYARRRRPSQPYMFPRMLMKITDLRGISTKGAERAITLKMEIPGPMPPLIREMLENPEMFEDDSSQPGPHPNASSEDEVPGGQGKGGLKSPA

[6] = test system: OC mRNA in MC3T3-E1 cultures; experiment: Northern blotting of osteocalcin (OC) mRNA; format: cell-based, mouse; details: MC3T3-E1, 1000 nM
Experimental: Total RNA was isolated with TriPure Isolation Reagent (Roche Molecular Biochemicals) from MC3T3-E1 cultures under mineralizing conditions at various times after culture initiation. RNA samples were separated by electrophoresis of 15 μg aliquots on a 1% agarose-formaldehyde gel. RNA was then transferred to a Hybond-N nylon membrane (Amersham-Pharmacia Biotech) and cross-linked by UV irradiation. Blots were pre-hybridized in Ultrahyb (Ambion) at 45° C. for at least 1 hr. A radiolabeled rat cDNA probe to OC (provided by J. E. Aubin, University of Toronto) was synthesized by random priming. Hybridizations were carried out overnight in Ultrahyb at 42° C. Following hybridization, blots were washed twice with 2×SSC, 0.1% SDS containing buffer for 5 min each at 42° C., followed by two washes in 0.1×SSC, 0.1% SDS for 15 min each at 42° C. and exposed to BioMax X-ray film at −80° C. for 24 hr.

[7] = biological target: T2, RARβ (Homo sapiens, UniProt P10826); details: compared with RARα; cited from earlier work
T2 sequence (P10826 1-455): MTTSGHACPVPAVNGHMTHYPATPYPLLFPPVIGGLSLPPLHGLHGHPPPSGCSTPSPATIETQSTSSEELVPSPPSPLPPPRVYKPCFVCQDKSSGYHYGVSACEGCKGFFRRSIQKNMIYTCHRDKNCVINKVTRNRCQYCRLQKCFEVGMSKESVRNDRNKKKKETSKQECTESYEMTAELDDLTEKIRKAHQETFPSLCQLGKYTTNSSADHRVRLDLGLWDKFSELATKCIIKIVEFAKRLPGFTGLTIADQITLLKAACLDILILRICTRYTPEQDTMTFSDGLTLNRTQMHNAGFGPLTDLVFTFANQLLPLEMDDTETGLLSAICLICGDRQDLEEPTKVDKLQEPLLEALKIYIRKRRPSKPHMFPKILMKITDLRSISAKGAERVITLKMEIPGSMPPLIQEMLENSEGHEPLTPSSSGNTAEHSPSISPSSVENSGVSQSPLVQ

[8] = biological target: T3, RARα (Homo sapiens, UniProt P10276); details: cited from earlier work
T3 sequence (P10276 1-462): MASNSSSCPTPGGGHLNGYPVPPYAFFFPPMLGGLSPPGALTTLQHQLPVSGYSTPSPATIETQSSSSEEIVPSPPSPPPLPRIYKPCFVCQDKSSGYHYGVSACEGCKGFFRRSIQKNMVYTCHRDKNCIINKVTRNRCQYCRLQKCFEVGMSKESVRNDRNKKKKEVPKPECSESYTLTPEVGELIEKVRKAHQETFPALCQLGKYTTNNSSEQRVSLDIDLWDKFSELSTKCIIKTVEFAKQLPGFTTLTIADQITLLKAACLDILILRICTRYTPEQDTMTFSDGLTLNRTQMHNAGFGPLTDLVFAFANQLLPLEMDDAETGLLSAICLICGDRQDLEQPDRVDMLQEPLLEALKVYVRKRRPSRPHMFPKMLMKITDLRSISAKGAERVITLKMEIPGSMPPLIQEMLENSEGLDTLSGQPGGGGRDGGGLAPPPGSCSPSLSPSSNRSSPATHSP

[9] = test system: normal human osteoblasts; experiment: Normal human osteoblast cultures, cell death and cell number (PI, Hoechst 33342); format: cell-based; details: 1000 nM, 10 days, versus control cultures
Experimental: Normal human osteoblast (NHO) were derived from the long bones of a human donor. The cells were purchased from Clonetics (BioWhittaker Company) and cultured according to their protocols with media and serum obtained from Clonetics. Ligands were added to the cell cultures once the cells had reached confluence. Cells were stained with Hoechst 33342, a DNA stain, to allow visualization of the cell nuclei and allow assessment of cell number (the cell nuclei appear white) (FIGS. 7A-C). FIGS. 7D-F the cells were stained with propidium iodide (a membrane impermeant nucleic acid stain) to allow visualization of dead or dying cells.

Structure (SMILES): CC1=C(/C=C/C(C)=C\C=C\C(C)=C\C(=O)O)C(C)(C)CCC1 [9-cis RA, 9-cis retinoic acid]
- number of PI-stained cells (cell death) [1]: stimulate cell death
- cell viability [2]: concentration-dependent decrease in cell viability

Structure (SMILES): C=C1/C(=C\C=C2/CCC[C@]3(C)[C@@H]([C@H](C)CCCC(C)(C)O)CC[C@@H]23)C[C@@H](O)C[C@@H]1O [1,25 VD3, 1α,25-dihydroxy vitamin-D3]
- amount of Alizarin Red-staining ([3]; MC3T3-E1, 28 days, 0.1 nM): decrease in the amount of Alizarin Red-staining
- mineralization (Alizarin Red S staining), concentration dependence [3]: concentration-dependent decrease in mineralization
- potency in raising PI-stained bodies, compared with the RAR-agonist ([1]; MC3T3-E1, over the concentration range examined): greater potency than the RAR-agonist
- number of PI-stained cells (cell death) [1]: greater number of PI-stained bodies
- cell viability (MTT) ([2]; MC3T3-E1, 60 hr, individual ligand): decreased cell viability

Structure (SMILES): C/C(=C\c1ccc(C(=O)O)cc1)c1ccc2c(c1)C(C)(C)CCC2(C)C [TTNPB, 4-[E-2-(5,6,7,8-Tetrahydro-5,5,8,8-tetramethyl-2-naphthalenyl)-1-propenyl] benzoic acid]
- number of PI-stained cells (cell death) [1]: stimulate cell death
- cell viability [2]: concentration-dependent decrease in cell viability

Structure (SMILES): Cc1ccc(C2=CC(C)(C)Oc3c(Br)cc(C(=O)Nc4ccc(C(=O)O)c(F)c4)cc32)cc1 [AGN194301, 2-Fluoro-4-[(1-(8-bromo-2,2-dimethyl-4-(4-methylphenyl)-2-H-chromen-6-yl)-methanoyl)-amino]-benzoic acid]
- mineral deposition (Von Kossa, calcium phosphate) ([4]; 19 days of ligand treatment): stimulates mineral deposition
- affinity for RARγ [5]: lower affinity
- OC expression [6]: stimulated OC expression
- culture time after which strong OC mRNA expression became evident ([6]; wild-type cultures 18 days): 12 days
- affinity for RARβ [7]: lower affinity
- bone formation relative to control cultures ([3]; 100 nM AGN194301 added to cultures treated with 10 nM 1,25 VD3): ~70%
- increase of Alizarin Red S staining over untreated controls ([3]; MC3T3-E1, 28 days, 10 nM): approximately 3 fold
- culture surface area stained with Alizarin Red S ([3]; MC3T3-E1, 28 days, 1 μM, control cultures approximately 18%): approximately 95%
- mineralization (Alizarin Red S staining), concentration dependence [3]: concentration-dependent increase in Alizarin Red S staining
- affinity for RARα [8]: high affinity
- antagonism of RARα [8]: potent antagonist
- number of PI-positive cells relative to 1,25 VD3 treated culture ([1]; AGN194301 added to 1,25 VD3-treated cultures, 36 hr): less than 20%
- appearance of PI-positive cells ([1]; MC3T3-E1, AGN194301 alone): no appreciable effect

Structure (SMILES): CC1=C(/C=C/C(C)=C/C=C/C(C)=C/C(=O)O)C(C)(C)CCC1 [all-trans RA, all-trans retinoic acid]
- alizarin red staining ([4]; fifteen day old cultures): reduced alizarin red staining
- cell death (PI staining) [9]: increased cell death
- cell number (Hoechst 33342) [9]: decreased cell number
- number of PI-stained cells (cell death) [1]: stimulate cell death
- cell viability [2]: concentration-dependent decrease in cell viability
